From US9487506B2, “Mineralocorticoid receptor antagonists” (Merck Sharp & Dohme Corp., priority 2011, dated 2016) come the findings set out here.

The target in this assay is T1, full-length human Mineralocorticoid Receptor (MR) (Homo sapiens, UniProt P08235).
T1 construct: host or cells: PathHunter CHO-K1 cells
T1 sequence (P08235 1-984): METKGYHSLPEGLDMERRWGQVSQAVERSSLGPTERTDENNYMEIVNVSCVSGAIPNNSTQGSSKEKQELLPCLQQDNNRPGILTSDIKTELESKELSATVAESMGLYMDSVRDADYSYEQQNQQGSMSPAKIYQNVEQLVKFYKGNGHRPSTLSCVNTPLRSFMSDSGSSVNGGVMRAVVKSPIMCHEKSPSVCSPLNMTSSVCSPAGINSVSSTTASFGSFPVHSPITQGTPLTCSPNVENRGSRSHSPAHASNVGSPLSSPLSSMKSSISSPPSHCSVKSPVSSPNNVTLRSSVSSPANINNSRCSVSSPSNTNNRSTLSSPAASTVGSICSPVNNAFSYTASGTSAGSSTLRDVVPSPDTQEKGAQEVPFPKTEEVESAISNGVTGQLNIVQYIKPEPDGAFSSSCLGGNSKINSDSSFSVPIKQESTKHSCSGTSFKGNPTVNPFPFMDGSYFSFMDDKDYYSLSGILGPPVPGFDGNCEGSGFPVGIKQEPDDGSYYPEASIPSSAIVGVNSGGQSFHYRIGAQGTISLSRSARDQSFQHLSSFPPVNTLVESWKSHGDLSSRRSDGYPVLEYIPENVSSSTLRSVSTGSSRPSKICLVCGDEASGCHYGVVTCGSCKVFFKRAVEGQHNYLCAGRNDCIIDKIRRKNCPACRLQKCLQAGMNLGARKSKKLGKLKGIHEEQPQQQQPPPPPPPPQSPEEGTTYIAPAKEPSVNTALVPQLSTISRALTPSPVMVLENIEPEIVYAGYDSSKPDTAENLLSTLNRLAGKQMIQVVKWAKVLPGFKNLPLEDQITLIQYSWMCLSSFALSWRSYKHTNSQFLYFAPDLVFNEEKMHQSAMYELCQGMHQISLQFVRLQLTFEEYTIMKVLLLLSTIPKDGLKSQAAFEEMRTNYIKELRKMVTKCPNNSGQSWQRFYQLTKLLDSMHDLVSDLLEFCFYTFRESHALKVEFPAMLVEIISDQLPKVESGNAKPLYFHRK
Description: human MR NH Pro assay (PathHunter Protein:Protein interaction assay), MR antagonist activity. It counts as cell-based. The note with it: PathHunter CHO-K1 cells overexpressing human MR; aldosterone 0.3 nM to about 1 nM; 6 hours at 37° C.; luminescence; read-out: IP (rating); IP is the inflection point for a given dose-response titration curve. From the text:
The activity of the compounds of the present invention regarding mineralocorticoid receptor antagonism can be evaluated using the following assay.
Assessment of MR Potency in HMR NH Pro Assay
The human MR NH Pro assay is a commercially available PathHunter™ Protein:Protein interaction assay (DiscoveRx; http://www.discoverx.com/nhrs/prod-nhrs.php) that measures the ability of compounds to antagonize full-length human Mineralocorticoid Receptor (MR) binding to a coactivator peptide. PathHunter™ CHO-K1 cells that overexpress human MR (Cat #93-0456C2, Lot No: 09B0913) were cultured in growth media (F12K w/Glutamine and phenol red (Gibco 11765-047) supplemented with 10% HI FBS (Gibco 16000); 0.25 mg/ml Hygromycin in PBS (Invitrogen 10687-010, 50 mg/ml); 100 I.U./mL and 100 μg/mL Pen/Strep (Gibco 15140-122); 0.6 mg/mL Geneticin (Gibco 10131-027).
Compounds were assessed for MR antagonist activity by incubating the cells with a titrating dose of compound in F12K w/Glutamine and phenol red culture media (Invitrogen 11765-047) supplemented with 1% Charcoal/Dextran Treated FBS (Hyclone #SH30068.01) and aldosterone (0.3 nM to about 1 nM) for 6 hours at 37° C. Cells were then treated with DiscoveRx detection reagent for 1 hour at room temperature and read using an Envision luminescence plate reader. % activity was measured relative to cells treated with aldosterone alone and IC50 values were calculated using ADA software.
Stock solution was prepared at 10 μM in DMSO and stored at −20° C. for assay, dilute in assay media to 1.8 or 6 nM (6× of final concentration=about 0.3 nM to about 1.0 nM)
5. Cell line: PathHunter CHO-K1 MR cells Cat #93-0456C2, Lot No: 09B0913, from operation liquid nitrogen stock.
3. The cells concentration was adjusted to 4×10^5 cells/mL.
4. Cells were (25 μL/well) added to the wells of a 384 well plate.
5. The plate was then incubated at 37° C. over night in a humidified incubator with 5% CO2.
6. Test compounds were titrated starting at 4.4 mM, 10-point titration in 1:3 dilution.
7. Aldosterone was diluted in assay media to 1.8 nM or 6 nM from 10 μM stock (final concentration to be about 0.3 nM to about 1.0 nM)
1. 10K exponentially growing cells/well (25 μL) were resuspended in assay media and plated into each well using the Multidrop (Thermo Electron) (use white wall, clear bottom assay plates (Costar #3570) and incubated overnight at 37° C., 5% CO2.
2. 0.25 μL 120× test compound (final DMSO concentration should be <1%) was added to each well n=2, 10 point titrations starting at 36.7 μM final concentration.
3. 5 μL of 6× agonist (final aldosterone concentration should be about 0.3 nM to about 1.0 nM) was added to all wells (using the PlateMate Plus; (ThermoFisher) (except those wells in columns 23 and 24)
4. 5 μL of assay media was added to all wells in column 23 and 24.
5. Cells were then incubated for 6 hrs at 37° C., 5% CO2.
6. 15 μL 3× DiscoveRx detection reagent was then added to each well.
7. Plates were incubated for 1 hour at room temperature in the dark.
8. Plates were read on Envision (PerkinElmer) luminesence plate reader and analyzed using ADA.

As for `COC(=O)CCn1nc(C(CCC#N)c2ccc(Cl)cc2F)c2ccccc21` (centres unmarked) [Example 17C, Methyl 3-{3-[1-(4-chloro-2-fluorophenyl)-3-cyanopropyl]-1H-indazol-1-yl}propanoate], the IC50 is 0.5 to 6 µM.
Then `CSCn1nc(C(CCC#N)c2ccc(Cl)cc2F)c2ccccc21` (centres unmarked) [Example 17D, 4-(4-chloro-2-fluorophenyl)-4-{1-[(methyl-sulfanyl)-methyl]-1H-indazol-3-yl}-butanenitrile], with 0.5 to 6 µM.
Then `N#CCCC(c1ccc(Cl)cc1F)c1nn(CC#N)c2ccccc12` (centres unmarked) [Example 17E, 4-(4-chloro-2-fluorophenyl)-4-[1-(cyano-methyl)-1H-indazol-3-yl]-butanenitrile], with 0.5 to 6 µM; and `COCCn1nc(C(CCC#N)c2ccc(Cl)cc2F)c2ccccc21` (centres unmarked) [Example 17F, 4-(4-chloro-2-fluorophenyl)-4-[1-(2-methoxyethyl)-1H-indazol-3-yl]butanenitrile], with 0.5 to 6 µM; and `CC(C)(C)OC(=O)Cn1nc(C(C)(C)c2ccc(Cl)cc2)c2ccccc21` [Example 18, tert-butyl {3-[1-(4-chlorophenyl)-1-methylethyl]-1H-indazol-1-yl}acetate], with 0.5 to 6 µM.
Next, `CCC(CC)(c1ccc(Cl)cc1)c1nn(CC(=O)OC)c2ccccc12` [Example 19, methyl {3-[1-(4-chlorophenyl)-1-ethylpropyl]-1H-indazol-1-yl}acetate]: 0.1 to 0.5 µM; `COC(=O)Cn1nc(Cc2ccc(Cl)cc2)c2ccccc21` [Example 20, Methyl [3-(4-chlorobenzyl)-1H-indazol-1yl]acetate]: 0.5 to 6 µM; `Clc1ccc(Cc2nn(Cc3ccccc3)c3ccccc23)cc1` [Example 21, 3-(4-chlorobenzyl)-1-benzyl-1H-indazole]: 0.5 to 6 µM.
